Assay results taken from patent EP4613329A1, “COMPOUND FOR INHIBITING BRD PROTEIN” (Benobio Co., Ltd., priority 2024, dated 2025).

Experiments:
BRD3 (BD1) = target: T1, BRD3 (BD1) (Homo sapiens, UniProt Q15059); assay: Binding inhibitory effect on BRD3 protein (same manner as Experimental Example 1-1)
T1 construct: a bromodomain of BRD2 (BD1) and BRD3 (BD1), one of the BRD protein family; GST

BRD2 (BD1) = target: T2, BRD2 (BD1) (Homo sapiens, UniProt P25440); assay: Binding inhibitory effect on BRD2 protein (AlphaScreen, GST-BRD2 (BD1) / biotinylated acetyl-histone H4 peptide); conditions: 100 nM GST-BRD2 (BD1), 100 nM biotinylated acetyl-histone H4 (Lys5, 8, 12, 16) peptide
T2 construct: a bromodomain of BRD2 (BD1) and BRD3 (BD1), one of the BRD protein family

[1] = test system: retinal degeneration mouse model; assay: Electroretinogram (ERG) in blue LED-induced retinal degeneration mouse model; assay type: in vivo, albino BALB/c mice; conditions: compound 24 nM, Com. Ex. 4 25 mg/kg; for Wavelength enhanced multiple compared to normal saline-treated group, Average value: average of a-wave and b-wave, intravitreal; for Wavelength enhanced multiple compared to normal saline-treated group, a-wave / Wavelength enhanced multiple compared to normal saline-treated group, b-wave: single intravitreal injection 1 hour after LED exposure
Protocol: In order to fabricate a retinal degeneration model, 7-week-old male albino BALB/c mice were used. Three mice were randomly assigned to each test group, and light and dark were maintained at 12-hour intervals. Each mouse was dark-adapted for 24 hours and then the pupils were dilated with 0.5% tropicamide and 0.5% phenylephrine hydrochloride eye drops (Santen, Osaka, Japan) 30 minutes before blue LED exposure. Unanesthetized mice were exposed to 2,000 lux of a blue LED (460 ± 10 nm) for 2 hours in a cage with reflective interiors. The light intensity was measured using an LED photometer (model TM-201L, TENMARS Electronics, Taipei, Taiwan). After exposure to blue LED, the mice were kept in the dark for 24 hours and then resumed on a 12-hour light/dark cycle for 3 days.
In a test substance control test, mice with retinal degeneration were divided into a normal saline-administered group and a compound-administered group (24 nM) of the present disclosure, and 3 mice were randomly assigned to each test group. A positive control test was divided into a normal saline-administered group and an Eyela (25 mg/kg mouse body weight)-administered group (Comparative Example 4), and three mice were randomly assigned to each test group.
All test groups were administered as a single dose by intravitreal injection 1 hour after LED exposure.
That is, mice were stored in a completely dark room for 16 hours before ERG recordings. All animals were anesthetized intraperitoneally with zolazepam (20 mg/kg) and xylazine (7.5 mg/kg). The cornea was coated with hydroxypropyl methylcellulose gel and covered with a gold ring contact electrode. Ground and reference electrodes were disposed subcutaneously on the tail and ears, respectively. Stimuli were short white flashes delivered through a Ganzfeld stimulator (UTAS-3000; LKC Technologies, Gaithersburg, MD, USA). The signal was amplified and filtered through a digital band-pass filter in the range of 5 to 300 Hz to generate a and b waves. Scotopic ERG, and rod-mediated responses were obtained at increasing light intensities of 0.025 and 3.96 cd/s • m^2. Photopic, cone-mediated responses were obtained after 5-min light adaptation to background light intensity. The recordings were obtained at the light intensity of 6.28 cd/s • m^2. Each recording was the average of three responses obtained within a 15-second stimulation interval. A-wave amplitude was measured from a baseline to the maximum a-wave peak, and b-wave amplitude was measured from the maximum a-wave peak to the maximum b-wave peak.

T1 sequence (Q15059 34-140 limits assumed, species assumed): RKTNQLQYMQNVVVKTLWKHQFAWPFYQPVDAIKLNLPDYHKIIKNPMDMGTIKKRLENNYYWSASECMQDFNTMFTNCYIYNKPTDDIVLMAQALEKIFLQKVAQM
T2 sequence (P25440 74-180 limits assumed, species assumed): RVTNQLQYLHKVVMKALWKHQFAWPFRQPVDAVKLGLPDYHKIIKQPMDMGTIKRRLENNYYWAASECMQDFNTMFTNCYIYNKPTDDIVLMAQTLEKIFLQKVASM

Row | IC50 (BRD3 (BD1)) | IC50 (BRD2 (BD1)) | Wavelength enhanced multiple compared to normal saline-treated group, Average value [1] | Wavelength enhanced multiple compared to normal saline-treated group, a-wave [1] | Wavelength enhanced multiple compared to normal saline-treated group, b-wave [1] | SMILES
1 | 3.71 µM | 16.6 µM |  |  |  | CN1Cc2c(cccc2-c2ccccc2-c2ccc(CN3CCN(S(C)(=O)=O)CC3)o2)C1=O [Compound 11]
2 | 2.99 µM | 14.5 µM |  |  |  | CN1Cc2c(cccc2-c2ccccc2-c2ccc(CN3CCCCC3)o2)C1=O [Compound 12, 2-methyl-4-(2-(5-(piperidine-1-ylmethyl)furan-2-yl)phenyl)isoindoline-1-one]
3 | 3.65 µM | 7.65 µM | 1.33 | 1.29 | 1.36 | CN1Cc2c(cccc2-c2ccccc2-c2ccc(CN3CCOCC3)o2)C1=O [Compound 13, 2-methyl-4-(2-(5-(morpholinomethyl)furan-2-yl)phenyl)isoindoline-1-one]
4 | 2.4 µM | 13.3 µM |  |  |  | CN1Cc2c(cccc2-c2ccccc2-c2ccc(CN3CCN(c4cccc(F)c4)CC3)o2)C1=O [Compound 14, 2-methyl-4-(2-(5-(((4-(3-fluorophenyl)piperazine-1-yl)methyl))furan-2-yl)phenyl)isoindoline-1-one]
5 | 2.56 µM | 15.8 µM |  |  |  | CN1Cc2c(cccc2-c2ccccc2-c2ccc(CN3CCC(N(C)C)CC3)o2)C1=O [Compound 15, 2-methyl-4-(2-(5-((4-(dimethylamino)piperidine-1-yl)methyl)furan-2-yl)phenyl)isoindoline-1-one]
6 | 1.75 µM | 15.8 µM |  |  |  | CN1Cc2c(cccc2-c2ccccc2-c2ccc(CN3CCN(C(C)(C)C(N)=O)CC3)o2)C1=O [Compound 16]
7 | 1.4 µM | 13.9 µM |  |  |  | CNC(=O)C1(Cc2ccccc2)CCN(Cc2ccc(-c3ccccc3-c3cccc4c3CN(C)C4=O)o2)CC1 [Compound 19]
8 | 3.72 µM | 16.7 µM |  |  |  | CN1Cc2c(cccc2-c2ccccc2-c2ccc(CN3CCC(Cc4ccc(F)cc4)(C(=O)NCc4ccccc4)CC3)o2)C1=O [Compound 20]
9 | 1.19 µM | 13.7 µM |  |  |  | CN1Cc2c(cccc2-c2ccccc2-c2ccc(CN3CCC4(CC3)C(=O)NCC4c3ccc(F)cc3)o2)C1=O (stereo not drawn) [Compound 22, 2-methyl-4-(2-(5-((4-(4-fluorophenyl)-2λ^2,8-diazaspiro[4,5]decan-1-one)methyl)furan-2-yl)phenyl)isoindoline-1-one]
10 | 1.3 µM | 15.3 µM |  |  |  | CN1Cc2c(cccc2-c2ccccc2-c2ccc(CN3CCC4(CC3)C(=O)N(C)CC4c3ccc(F)cc3)o2)C1=O (stereo not drawn) [Compound 23, 2-methyl-4-(2-(5-(((4-(4-fluorophenyl)-2-methyl)-2λ^2,8-diazaspiro[4,5]decan-1-one)methyl)furan-2-yl)phenyl)isoindoline-1-one]
11 | 1.67 µM | 15.2 µM |  |  |  | CCC1(C(=O)NC)CCCN(Cc2ccc(-c3ccccc3-c3cccc4c3CN(C)C4=O)o2)C1 (stereo not drawn) [Compound 24]
12 | 4.86 µM | 14.6 µM |  |  |  | CN1Cc2c(cccc2-c2ccccc2-c2ccc(CN3CCC(Cc4ccccc4)(C(N)=O)CC3)o2)C1=O [Compound 29, 2-methyl-4-(2-(5-(((4-benzyl-4'-carboxamidyl)piperidine)methyl)furan-2-yl)phenyl)isoindoline-1-one]
13 | 2.78 µM | 15 µM |  |  |  | CN1Cc2c(cccc2-c2ccccc2-c2ccc(CN3CCC(Cc4ccncc4)(C(N)=O)CC3)o2)C1=O [Compound 31, 2-methyl-4-(2-(5-(((4-pyridinylmethyl-4'-carboxamidyl)piperidine)methyl)furan-2-yl)phenyl)isoindoline-1-one]
14 | 3.99 µM | 16.8 µM |  |  |  | CNC(=O)C1(Cc2ccc(F)cc2)CCN(C(=O)c2ccc(-c3ccccc3-c3cccc4c3CN(C)C4=O)o2)CC1 [Compound 32, 2-methyl-4-(2-(5-(((4-(4-fluorobenzyl)-4'-carboxamidyl)piperidine)carbonyl)furan-2-yl)phenyl)isoindoline-1-one]

Continued, compound first:

Row | SMILES | IC50 (BRD3 (BD1)) | IC50 (BRD2 (BD1)) | Wavelength enhanced multiple compared to normal saline-treated group, Average value [1] | Wavelength enhanced multiple compared to normal saline-treated group, a-wave [1] | Wavelength enhanced multiple compared to normal saline-treated group, b-wave [1]
15 | CNCc1ccc(-c2ccccc2-c2cccc3c2CN(C)C3=O)o1 [Compound 1, 2-methyl-4-(2-(5-((methylamino)methyl)furan-2-yl)phenyl)isoindoline-1-one] | 1.39 µM | 16.9 µM |  |  | 
16 | CCNCc1ccc(-c2ccccc2-c2cccc3c2CN(C)C3=O)o1 [Compound 2, 2-methyl-4-(2-(5-((ethylamino)methyl)furan-2-yl)phenyl)isoindoline-1-one] | 1.26 µM | 16.8 µM |  |  | 
17 | CCCNCc1ccc(-c2ccccc2-c2cccc3c2CN(C)C3=O)o1 [Compound 3, 2-methyl-4-(2-(5-((propylamino)methyl)furan-2-yl)phenyl)isoindoline-1-one] | 4.51 µM | 14.1 µM |  |  | 
18 | COCNCc1ccc(-c2ccccc2-c2cccc3c2CN(C)C3=O)o1 [Compound 4, 2-methyl-4-(2-(5-((methoxymethylamino)methyl)furan-2-yl)phenyl)isoindoline-1-one] | 4.43 µM | 17.4 µM |  |  | 
19 | CN(C)CCNCc1ccc(-c2ccccc2-c2cccc3c2CN(C)C3=O)o1 [Compound 5, 2-methyl-4-(2-(5-((dimethylaminoethylamino)methyl)furan-2-yl)phenyl)isoindoline-1-one] | 2.36 µM | 12.4 µM |  |  | 
20 | C#CCN(C)Cc1ccc(-c2ccccc2-c2cccc3c2CN(C)C3=O)o1 [Compound 6] | 2.61 µM | 15.8 µM |  |  | 
21 | CN1Cc2c(cccc2-c2ccccc2-c2ccc(CNC3CCCC3)o2)C1=O [Compound 7, 2-methyl-4-(2-(5-((cyclopentylamino)methyl)furan-2-yl)phenyl)isoindoline-1-one] | 4.35 µM | 18.2 µM |  |  | 
22 | CC(C)NCc1ccc(-c2ccccc2-c2cccc3c2CN(C)C3=O)o1 [Compound 8, 2-methyl-4-(2-(5-((isopropylamino)methyl)furan-2-yl)phenyl)isoindoline-1-one] | 2.2 µM |  |  |  | 
23 | CN1Cc2c(cccc2-c2ccccc2-c2ccc(CNCCS(C)(=O)=O)o2)C1=O [Compound 9] | 3.85 µM | 19.7 µM |  |  | 
24 | CN1CCN(CCNCc2ccc(-c3ccccc3-c3cccc4c3CN(C)C4=O)o2)CC1 [Compound 10, 2-methyl-4-(2-(5-(((2-(4-methylpiperazine-1-yl)ethyl)amino)methyl)furan-2-yl)phenyl)isoindoline-1-one] | 3.89 µM | 11.4 µM |  |  | 
25 | CN1Cc2c(cccc2-c2ccccc2-c2ccc(CNCc3ccccc3)o2)C1=O [Compound 17, 2-methyl-4-(2-(5-((benzylamino)methyl)furan-2-yl)phenyl)isoindoline-1-one] | 3.61 µM | 14 µM |  |  | 
26 | CN1Cc2c(cccc2-c2ccccc2-c2ccc(CNCc3cnn(C)c3)o2)C1=O [Compound 18, 2-methyl-4-(2-(5-((((1-methyl-1H-pyrazole-4yl)methyl)amino)methyl)furan-2-yl)phenyl)isoindoline-1-one] | 2.67 µM | 6.51 µM | 2.04 | 2.05 | 2.03
27 | CNC(=O)CC1C(=O)NCCN1Cc1ccc(-c2ccccc2-c2cccc3c2CN(C)C3=O)o1 (stereo not drawn) [Compound 26] | 1.38 µM | 13 µM |  |  | 
28 | CNC(=O)c1ccc(-c2ccccc2-c2cccc3c2CN(C)C3=O)o1 [Compound 33, 2-methyl-4-(2-(5-((methylamino)carbonyl)furan-2-yl)phenyl)isoindoline-1-one] | 2.39 µM | 11.1 µM |  |  | 
29 | CNC(=O)C1(C)CN(C(=O)c2ccc(-c3ccccc3-c3cccc4c3CN(C)C4=O)o2)CCC1O (stereo not drawn) [Compound 34] | 4.68 µM | 15.7 µM |  |  | 
30 | CCC1(C(=O)NC)CCCN(C(=O)c2ccc(-c3ccccc3-c3cccc4c3CN(C)C4=O)o2)C1 (stereo not drawn) [Compound 36] | 4.26 µM | 14.5 µM |  |  | 
31 | CNCc1oc(-c2ccccc2-c2cccc3c2CN(C)C3=O)cc1C [Compound 38] | 1.12 µM | 12.5 µM |  |  | 
32 | CNC(=O)C1(C)CN(Cc2oc(-c3ccccc3-c3cccc4c3CN(C)C4=O)cc2C)CCC1O (stereo not drawn) [Compound 41] | 2.14 µM | 15.5 µM |  |  | 
